{"source": "ChEMBL document CHEMBL3397013", "about": "“Target engagement in lead generation” (Bioorg Med Chem Lett, 2015)", "key": {"[1]": {"tested_on": "Lung", "assay": "Drug level in rat lung at 2.3 mg/kg dosed via inhalation measured post perfusion", "type": "ADME, organism-based", "design": "dose 2.3 mg/kg", "conditions": "in vivo, inhaled_or_intranasal, read-out: Drug uptake"}, "[2]": {"target": "T1, Tyrosine-protein kinase ITK/TSK (Homo sapiens, UniProt Q08881)", "T1 sequence (Q08881 whole entry)": "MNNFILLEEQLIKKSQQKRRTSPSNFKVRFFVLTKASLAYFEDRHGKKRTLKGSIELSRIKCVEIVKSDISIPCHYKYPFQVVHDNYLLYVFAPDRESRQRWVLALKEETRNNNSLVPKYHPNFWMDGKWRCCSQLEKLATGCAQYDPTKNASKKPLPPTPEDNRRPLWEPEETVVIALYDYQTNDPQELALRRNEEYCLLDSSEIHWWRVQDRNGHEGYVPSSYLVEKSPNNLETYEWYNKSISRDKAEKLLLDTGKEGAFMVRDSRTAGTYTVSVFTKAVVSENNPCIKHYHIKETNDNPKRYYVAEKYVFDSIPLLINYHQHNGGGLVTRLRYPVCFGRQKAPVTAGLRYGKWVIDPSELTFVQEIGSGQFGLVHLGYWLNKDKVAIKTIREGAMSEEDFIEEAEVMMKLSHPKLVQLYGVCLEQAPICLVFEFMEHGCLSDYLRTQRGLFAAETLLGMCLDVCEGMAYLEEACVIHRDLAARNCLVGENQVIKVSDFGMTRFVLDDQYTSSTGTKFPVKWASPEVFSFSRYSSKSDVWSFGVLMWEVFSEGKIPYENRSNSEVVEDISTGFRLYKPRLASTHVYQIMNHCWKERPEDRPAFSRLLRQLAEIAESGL", "assay": "Inhibition of human ITK"}, "[3]": {"tested_on": "Lung", "assay": "Drug level in rat lung at 2.3 mg/kg dosed via inhalation measured post cell suspension", "type": "ADME, organism-based", "design": "dose 2.3 mg/kg", "conditions": "in vivo, inhaled_or_intranasal, read-out: Drug uptake"}, "[4]": {"target": "T2, Tyrosine-protein kinase ITK/TSK (Homo sapiens) (UniProt Q08881)", "T2 sequence (whole entry)": "T1 sequence (Q08881 whole entry)", "assay": "Inhibition of human ITK assessed as ratio of Kinact to Ki"}, "[5]": {"target": "Tyrosine-protein kinase BTK (Homo sapiens, UniProt Q06187)", "sequence (Q06187 whole entry)": "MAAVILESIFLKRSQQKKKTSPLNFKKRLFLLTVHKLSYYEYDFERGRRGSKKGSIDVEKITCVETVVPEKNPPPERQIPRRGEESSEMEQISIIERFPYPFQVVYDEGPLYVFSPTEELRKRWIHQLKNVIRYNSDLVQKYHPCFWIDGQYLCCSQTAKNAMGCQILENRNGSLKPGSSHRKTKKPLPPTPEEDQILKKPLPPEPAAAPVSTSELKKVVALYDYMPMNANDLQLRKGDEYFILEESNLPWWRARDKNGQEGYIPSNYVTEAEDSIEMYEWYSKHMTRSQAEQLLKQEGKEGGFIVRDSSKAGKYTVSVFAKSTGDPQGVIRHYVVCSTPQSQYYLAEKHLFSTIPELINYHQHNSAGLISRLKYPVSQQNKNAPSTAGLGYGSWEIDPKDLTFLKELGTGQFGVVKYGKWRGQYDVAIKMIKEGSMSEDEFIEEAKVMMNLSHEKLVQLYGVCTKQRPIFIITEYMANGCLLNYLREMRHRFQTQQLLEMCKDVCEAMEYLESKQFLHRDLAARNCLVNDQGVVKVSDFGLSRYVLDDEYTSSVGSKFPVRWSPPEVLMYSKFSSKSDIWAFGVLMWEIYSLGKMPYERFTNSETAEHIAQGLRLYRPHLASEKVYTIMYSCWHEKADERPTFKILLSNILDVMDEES", "assay": "Inhibition of BTK (unknown origin) using ATP and Y5 Sox15 substrate mix incubated for 30 mins by fluorescence based assay"}, "[6]": {"target": "cAMP and cAMP-inhibited cGMP 3',5'-cyclic phosphodiesterase 10A (Homo sapiens, UniProt Q9Y233)", "sequence (Q9Y233 whole entry)": "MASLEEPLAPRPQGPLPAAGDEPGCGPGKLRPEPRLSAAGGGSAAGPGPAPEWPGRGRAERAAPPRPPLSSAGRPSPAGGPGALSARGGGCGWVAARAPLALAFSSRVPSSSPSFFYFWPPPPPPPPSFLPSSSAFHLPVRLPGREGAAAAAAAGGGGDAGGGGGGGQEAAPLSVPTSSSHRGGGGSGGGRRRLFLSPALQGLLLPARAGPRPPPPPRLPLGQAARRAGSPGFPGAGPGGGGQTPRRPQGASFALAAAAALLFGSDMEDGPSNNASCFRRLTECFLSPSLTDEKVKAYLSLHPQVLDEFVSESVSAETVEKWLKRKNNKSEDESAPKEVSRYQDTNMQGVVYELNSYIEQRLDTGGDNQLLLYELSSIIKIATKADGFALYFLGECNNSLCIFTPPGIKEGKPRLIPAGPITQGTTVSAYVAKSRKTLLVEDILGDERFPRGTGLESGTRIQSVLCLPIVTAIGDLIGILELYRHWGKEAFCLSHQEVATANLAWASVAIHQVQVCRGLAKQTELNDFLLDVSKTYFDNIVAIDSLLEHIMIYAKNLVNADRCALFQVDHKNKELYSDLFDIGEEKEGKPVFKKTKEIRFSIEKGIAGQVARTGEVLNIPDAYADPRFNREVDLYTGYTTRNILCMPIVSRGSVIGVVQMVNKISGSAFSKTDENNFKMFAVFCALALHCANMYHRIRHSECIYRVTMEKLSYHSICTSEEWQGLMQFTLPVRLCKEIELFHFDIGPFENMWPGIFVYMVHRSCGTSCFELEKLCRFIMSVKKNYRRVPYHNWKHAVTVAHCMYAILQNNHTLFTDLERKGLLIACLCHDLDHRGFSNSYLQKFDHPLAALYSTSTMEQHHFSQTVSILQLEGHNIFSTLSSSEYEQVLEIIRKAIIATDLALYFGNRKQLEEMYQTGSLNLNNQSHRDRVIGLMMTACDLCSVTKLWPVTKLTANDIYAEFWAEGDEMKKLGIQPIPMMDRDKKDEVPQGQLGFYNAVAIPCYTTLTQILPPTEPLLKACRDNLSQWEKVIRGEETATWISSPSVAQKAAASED", "assay": "Inhibition of human PDE10A"}, "[7]": {"assay": "Inhibition of human PDE isoforms"}, "[8]": {"tested_on": "Rattus norvegicus", "assay": "Binding affinity to 5HT1A receptor in Sprague-Dawley rat at 0.3 to 10 mg/kg, po after 2 to 8 hrs by PET imaging method", "type": "functional, organism-based", "design": "route oral"}, "[9]": {"tested_on": "Rattus norvegicus", "assay": "Induction of prolongation of micturition interval in orally dosed Sprague-Dawley rat model of 8-OH-DPAT induced overactive bladder by cystometric study", "type": "functional", "conditions": "po, read-out: MED"}}, "data": [{"smiles": "C=CC(=O)N1CC[C@H](Nc2cc(CN[C@@H](C)C(C)(C)C)cc(Nc3nc4cccnc4s3)n2)C1", "values": [{"measurement": "concentration", "setting": "[1]", "value": 6, "unit": "µM"}, {"measurement": "IC50", "setting": "[2]", "value": 5, "unit": "nM"}, {"measurement": "concentration", "setting": "[3]", "value": 0.008, "unit": "µM"}, {"measurement": "Ratio", "setting": "[4]", "value": 520000, "unit": "M⁻¹ s⁻¹"}]}, {"smiles": "C=CC(=O)Nc1cccc(N(C)c2nc(Nc3cccc(OCCCN(C)C(=O)CCCC(=O)NCCCOCCOCCOCCCNC(=O)CCCC[C@H]4SC[C@H]5NC(=O)N[C@H]54)c3)ncc2C)c1", "values": [{"measurement": "IC50", "setting": "[5]", "value": 0.5, "unit": "nM"}]}, {"smiles": "Cc1nc2ccccc2nc1-c1cc2nc(N3CC[C@@H](F)C3)cc(N([11CH3])C3CCOCC3)n2n1", "values": [{"measurement": "IC50", "setting": "[6]", "value": 0.06, "unit": "nM"}, {"measurement": "IC50", "setting": "[7]", "value": "> 1000", "unit": "nM"}]}, {"smiles": "CNC(=O)c1ccc2ccn(C3CCN(CCc4c(OC)ccc5c4OC(C)(C)CC5=O)CC3)c2c1.O=C(O)/C=C/C(=O)O", "values": [{"measurement": "EC50", "setting": "[8]", "value": 5.4, "unit": "nM"}, {"measurement": "minimal effective dose", "setting": "[9]", "value": 0.1, "unit": "mg/kg"}]}]}
